Results published in US5962516A, “Immunosuppressive compounds and methods” (priority 1999, dated 1999).
Entries after “also recorded” stand apart in the source; their conditions may differ. Counter-ions that a name gives are not always drawn.

Tests used:
[1] = Stability in water (D2O) by 1H NMR; type: physicochemical; conditions: room temperature, Succinate Sodium Salt
Experimental: Sodium triptolide succinate, designated YM-274, was dissolved in D2 O, and the aqueous solution was stored at room temperature.
A solution of sodium triptolide succinate (YM-274) in D2 O was prepared at a concentration of 3 mg/ml and stored at room temperature. The solution was analyzed by ^1 H NMR at intervals of 1, 3, 5, 15, 45, 90, 180 minutes; 1, 7, 14 days; and 1, 2, 3, and 5 months.

male fertility [2] = assay: Effect on fertility in male mice; type: in vivo, mouse (BDF1)
Experimental: (§1) The compounds of the invention are also effective in reducing or inhibiting male fertility, wherein administration of a compound of the invention to a male mammal is effective to reduce the potency of the male's semen, thereby reducing or blocking fertilization. Triptolide succinate (YM-262) was tested for inhibition of fertility in male BDF1 mice, according to protocols described in Example 15. The compound was administered intraperitoneally (IP) in a saline solution, using a cycle of daily administration for 5 days followed by a two day cessation of treatment. Dose levels were 0.04 or 0.13 mg/kg/day. The cycle was repeated for 5 weeks before evaluation of physiological effects (testis weight) and reproductive performance.
The effect of the compound on fertility was tested with groups of five male mice treated according to the same schedule. Each male was housed with two females starting on day 32, after termination of YM-262 treatment.
(§2) Triptolide succinate (YM-262) was tested for fertility control in male BDF1 mice, using a cycle of daily administration for 5 days followed by a two day cessation of treatment. The cycle was repeated for 5 weeks, with dosing on days 0-4, 7-11, 14-18, 21-25 and 28-32 before evaluation of physiological effects and reproductive performance.
A dosing solution of YM-262 was prepared once a week from a stock solution in saline at 1.0 mg/ml and stored at 4° C. […]

testis weight = assay: Effect on testis weight in male mice; type: in vivo, mouse (BDF1); design: decrease in testis weight: dose or concentration left out as unconfirmed; conditions: 5 days on/2 days off, 5 weeks, vs saline control
Experimental: as §1, with “Dose levels were 0.04 or 0.13 mg/kg/day.” left out
as §2, with “performance. […]” for “performance.”
On day 32, five to six mice from each dosing group were sacrificed, and the testes were removed and stored in formalin for histological analysis and weight determination. The average of both testes was calculated for each mouse, and the mean and standard error of the mean (S.E.) were determined.

male fertility [3] = assay: Effect on fertility in male mice; type: in vivo, mouse (BDF1); conditions: for delay of time from cohabitation to birth / increase in time from cohabitation to birth: vs control
[4] = 0.03 mg/kg/day (so in the source) i.p.
[5] = 0.1 mg/kg/day (so in the source) i.p.

Row | Compound | stability in aqueous solution, three months ([1]; 3 months) | stability in aqueous solution, five months ([1]; 5 months) | delay of recovery of fertility after termination of therapy (male fertility [2]; 0.13 mg/kg/day i.p. over 32 days) [days] | reversibility of antifertility effect (male fertility [2]; after cessation of administration) | reduction in testis weight (testis weight; 0.13 mg/kg/day i.p.) | decrease in testis weight (testis weight; (as printed) i.p.) | time from beginning of cohabitation to birth of litters (male fertility [3]; [4]) [days] | delay of time from cohabitation to birth (male fertility [3]; [4]) [%] | period of unproductive mating (male fertility [3]; 0.04 mg/kg/day i.p.) | time from beginning of cohabitation to birth of litters (male fertility [3]; 0.04 mg/kg/day i.p.) [days] | delay of time from cohabitation to birth (male fertility [3]; 0.04 mg/kg/day i.p.) [%] | time from cohabitation to birth (male fertility [3]; [5]) [days] | delay of recovery of fertility after termination of therapy (male fertility [3]; 0.1 mg/kg/day (so in the source) i.p. over 32 days) [days] | increase in time from cohabitation to birth (male fertility [3]; [5]) [%] | time from cohabitation to birth (male fertility [3]; 0.13 mg/kg/day i.p.) [days] | increase in time from cohabitation to birth (male fertility [3]; 0.13 mg/kg/day i.p.) [%]
1 | CC(C)C12OC1C1OC13C1(C)CCC4=C(COC4=O)C1CC1OC13C2OC(=O)CCC(=O)O (stereo not shown) [YM-274, Triptolide Succinate Sodium Salt] | no appreciable change in the NMR spectrum; also recorded: unchanged after three months in solution | Some decomposition was apparent; also recorded: some decomposition was observed | – | – | – | – | – | – | – | – | – | – | – | – | – | –
2 | CC(C)C12OC1C1OC13C1(C)CCC4=C(COC4=O)C1CC1OC13C2OC(=O)CCC(=O)O (stereo not shown) [YM-262, Triptolide Succinate] | – | – | 21 | the antifertility effect was reversible; also recorded: the control of fertility was reversible | approximately 13% | approximately 13% | 28 | 17 | approximately four-day period of unproductive mating | 28 | 17 | 45 | 21 | 88 | 45 | 88
